Assay results as given in patent US4716172A, “4-substituted octahydroquinolizine analgesic compounds and octahydroquinolizinium intermediates” (McNeilab, Inc., priority 1986, dated 1987).
Read-outs that look alike come from different tables or passages of the source.

Test system: acetylcholine-bromide-induced abdominal constriction (writhing)
Test: Mouse Acetylcholine-Bromide-Induced Abdominal Constriction Assay
Assay type: in vivo
Conditions: for ED50: po, read-out: ED50 (dose which inhibits writhing by 50%)
Procedure: Mouse Acetylcholine-Bromide-Induced Abdominal Constriction Assay:
The mouse acetylcholine-induced abdominal constriction assay, as described by Collier et al. in Brit. J. Pharmacol. Chem. Ther., 32:295-310, 1968, with minor modifications was the test used to assess analgesic potency. The test drugs or appropriate vehicle were administered orally (p.o.) and 30 minutes later the animals received an intraperitoneal (i.p.) injection of 5.5 mg/kg acetylcholine bromide (Matheson, Coleman and Bell, East Rutherford, NJ). The mice were then placed in groups of four into glass bell jars and observed for a ten minute observation period for the occurrence of a writhe (defined as a wave of constriction and elongation passing caudally along the abdominal wall, accompanied by a twisting of the trunk and followed by extension of the hind limbs). The percent inhibition of writhing (equated to % analgesia) was calculated as follows: The % inhibition of writhing, i.e., % analgesia, is equal to the difference between the No. of control animals writhing and the No. of drug-treated animals writhing times 100 divided by the No. of control animals writhing.
At least 20 animals were used for control and in each of the drug treated groups. Four doses were used to determine each dose response curve and ED50 (that does which inhibits writhing by 50%). The ED50 values and their 95% fiducial limits were determined by a computer assisted probit analysis.

Compound | ED50 (Mus musculus) [mg/kg] | also measured
Cl.Ic1ccccc1[C@@H]1CCC[C@@H]2CCCCN21 (relative stereo) [Example 4e, trans-Octahydro-4-(2-iodophenyl)-2H-quinolizine Hydrochloride] | 30 | –
Cl.c1ccc(Oc2ccc([C@@H]3CCC[C@@H]4CCCCN43)cc2)cc1 (relative stereo) [Example 2e, trans-Octahydro-4-(4-phenoxyphenyl)-2H-quinolizine Hydrochloride] | – | ED50 (mouse, p.o., 30 minutes before i.p. 5.5 mg/kg acetylcholine bromide, ten minute observation): 8 mg/kg
COc1cccc([C@@H]2CCC[C@@H]3CCCCN32)c1.Cl (relative stereo) [Example 3e, trans-Octahydro-4-(3-methoxyphenyl)-2H-quinolizine Hydrochloride] | – | % inhibition of writhing (% analgesia), printed in ED50 column (mouse, p.o., at 30 mg/Kg, 30 minutes before i.p. 5.5 mg/kg acetylcholine bromide, ten minute observation): 40%
Brc1ccccc1[C@@H]1CCC[C@@H]2CCCCN21.Cl (relative stereo) [Example 5e, trans-4(2-Bromophenyl)octahydro-2H-quinolizine Hydrochloride] | 23 | –
Clc1cccc(Cl)c1[C@@H]1CCC[C@@H]2CCCCN21.[O-][Cl+3]([O-])([O-])O (relative stereo) [Example 1e, trans-4-(2,6-dichlorophenyl)octahydro-2H-quinolizine perchlorate] | 5 | –
